# Values of other authors, collected in PMC9308844, “Development of new copper-64 labeled rhodamine: a potential PET myocardial perfusion imaging agent” (EJNMMI Radiopharmacy and Chemistry, 2022).
# Parameters: method as in earlier work
# Details: ref Baranyai et al. [2020]; Clarke et al. 1990; Clarke and Martell [1991a], [b]; Wadas et al. [2010]; Tolmachev et al. [2017]
compound,measurement,value
O=C([O-])CN1CCN(CC(=O)[O-])CCN(CC(=O)[O-])CC1.[Cu+2] [[Cu^II NOTA]],Log K of Cu^II complex,21.6
